The record followed here is patent US10702592B2, “Peptides and combination of peptides for use in immunotherapy against NHL and other cancers” (Immatics Biotechnologies GmbH, priority 2016, dated 2020).

One experiment relates to CD8+ T cells. Briefly: In vitro T-cell priming immunogenicity assay (aAPC with pMHC and anti-CD28, multimer staining). In kind it is cell-based, human. Particulars: HLA-A*02 restricted peptides; percentage of positive wells and donors (among evaluable). An excerpt:
In order to obtain information regarding the immunogenicity of the TUMAPs of the present invention, the inventors performed investigations using an in vitro T-cell priming assay based on repeated stimulations of CD8+ T cells with artificial antigen presenting cells (aAPCs) loaded with peptide/MHC complexes and anti-CD28 antibody.
In order to perform in vitro stimulations by artificial antigen presenting cells loaded with peptide-MHC complex (pMHC) and anti-CD28 antibody, the inventors first isolated CD8+ T cells from fresh HLA-A*02 leukapheresis products via positive selection using CD8 microbeads (Miltenyi Biotec, Bergisch-Gladbach, Germany) of healthy donors obtained from the University clinics Mannheim, Germany, after informed consent.
PBMCs and isolated CD8+ lymphocytes were incubated in T-cell medium (TCM) until use consisting of RPMI-Glutamax (Invitrogen, Karlsruhe, Germany) supplemented with 10% heat inactivated human AB serum (PAN-Biotech, Aidenbach, Germany), 100 U/ml Penicillin/100 μg/ml Streptomycin (Cambrex, Cologne, Germany), 1 mM sodium pyruvate (CC Pro, Oberdorla, Germany), 20 μg/ml Gentamycin (Cambrex). 2.5 ng/ml IL-7 (PromoCell, Heidelberg, Germany) and 10 U/ml IL-2 (Novartis Pharma, Nurnberg, Germany) were also added to the TCM at this step.
Generation of pMHC/anti-CD28 coated beads, T-cell stimulations and readout was performed in a highly defined in vitro system using four different pMHC molecules per stimulation condition and 8 different pMHC molecules per readout condition.
The purified co-stimulatory mouse IgG2a anti human CD28 Ab 9.3 (Jung et al., 1987) was chemically biotinylated using Sulfo-N-hydroxysuccinimidobiotin as recommended by the manufacturer (Perbio, Bonn, Germany). Beads used were 5.6 μm diameter streptavidin coated polystyrene particles (Bangs Laboratories, Illinois, USA).
800.000 beads/200 μl were coated in 96-well plates in the presence of 4×12.5 ng different biotin-pMHC, washed and 600 ng biotin anti-CD28 were added subsequently in a volume of 200 μl. Stimulations were initiated in 96-well plates by co-incubating 1×10^6 CD8+ T cells with 2×10^5 washed coated beads in 200 μl TCM supplemented with 5 ng/ml IL-12 (PromoCell) for 3 days at 37° C. Half of the medium was then exchanged by fresh TCM supplemented with 80 U/ml IL-2 and incubating was continued for 4 days at 37° C. This stimulation cycle was performed for a total of three times. For the pMHC multimer readout using 8 different pMHC molecules per condition, a two-dimensional combinatorial coding approach was used as previously described (Andersen et al., 2012) with minor modifications encompassing coupling to 5 different fluorochromes. Finally, multimeric analyses were performed by staining the cells with Live/dead near IR dye (Invitrogen, Karlsruhe, Germany), CD8-FITC antibody clone SK1 (BD, Heidelberg, Germany) and fluorescent pMHC multimers. For analysis, a BD LSRII SORP cytometer equipped with appropriate lasers and filters was used. Peptide specific cells were calculated as percentage of total CD8+ cells. Evaluation of multimeric analysis was done using the FlowJo software (Tree Star, Oregon, USA). In vitro priming of specific multimer+CD8+ lymphocytes was detected by comparing to negative control stimulations.

For the next experiment, the target named is HLA-A*02:01 (Homo sapiens, UniProt P04439, D140Y/D185E/D98H/E176V/E277Q/G131W/G231S/I119V/I121R/I166T/I218V/L300P/L318F/N151K/N90K/P208A/P217A/Q86G/Q94H/R138H/R169H/T345S). As to the kind of experiment: MHC binding assay (UV-ligand exchange, beta2m ELISA). Particulars: binding to HLA-A*02:01, UV-ligand exchange. Put shortly: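 UV-exchange pMHC monomers, 100-fold diluted → streptavidin capture 1 h 37 °C → HRP anti-β2m 2 ug/ml 1 h 37 °C → TMB, A450. Yield from HLA-A*02:01/MLA-001 monomer standard curve, 15-500 ng/ml. Only stably bound peptides keep β2m-containing complexes intact.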
A general note: In an ELISA, binding on a coated surface is turned into a signal by an enzyme label.

Turning to “44 (FIIEEQSFL; listed as Homo sapiens) [compound 44]”, the “Wells positive [%]” value in the experiment with CD8+ T cells is reported as ““+” (<20% = +)”. In addition, the “Peptide exchange (MHC class I binding score, peptide exchange yield)” value (shortened to “Peptide exchange”) in the experiment with HLA-A*02:01 is reported as ““+++” (≥50 = +++)”.

In the case of “46 (FLVEEIFQT; listed as Homo sapiens) [compound 46]”, the “Wells positive [%]” value in the experiment with CD8+ T cells is recorded as ““+” (<20% = +)”. In addition, the “Peptide exchange” value with HLA-A*02:01 is given as ““+++” (≥50 = +++)”.

In the case of “47 (GLLPKLTAL; listed as Homo sapiens) [compound 47]”, the “Wells positive [%]” value with CD8+ T cells was ““++” (20% - 49% = ++)”. Also, the “Peptide exchange” value with HLA-A*02:01 is ““+++” (≥50 = +++)”.

On to “51 (SLLGNSPVL; listed as Homo sapiens) [compound 51]”, for which, in the experiment with CD8+ T cells, the “Wells positive [%]” value is recorded as ““+++” (50% - 69% = +++)”. Further, the “Peptide exchange” value with HLA-A*02:01 is given as ““++++” (≥75% = ++++)”.

Regarding “52 (VLLEDVDAAFL; listed as Homo sapiens) [compound 52]”, in the experiment with CD8+ T cells, the “Wells positive [%]” value was ““+” (<20% = +)”. Moreover, the “Peptide exchange” value with HLA-A*02:01 is ““++++” (≥75% = ++++)”.

Turning to “53 (FLREYFERL; listed as Homo sapiens) [compound 53]”, the “Wells positive [%]” value with CD8+ T cells is recorded as ““+++” (50% - 69% = +++)”. Also, in the experiment with HLA-A*02:01, the “Peptide exchange” value is ““++++” (≥75% = ++++)”.

As for “57 (LQIGDFVSV; listed as Homo sapiens) [compound 57]”, the “Wells positive [%]” value in the experiment with CD8+ T cells is given as ““++++” (≥70% = ++++)”. For the same substance, in the experiment with HLA-A*02:01, the “Peptide exchange” value is on record as ““++++” (≥75% = ++++)”.

Consider “59 (RLHREVAQV; listed as Homo sapiens) [compound 59]”, for which, in the experiment on CD8+ T cells, the “Wells positive [%]” value is given as ““+” (<20% = +)”. Moreover, in the experiment with HLA-A*02:01, the “Peptide exchange” value is ““+++” (≥50 = +++)”.

For the substance “60 (SLLIDVITV; listed as Homo sapiens) [compound 60]”, in the experiment on CD8+ T cells, the “Wells positive [%]” value is ““+++” (50% - 69% = +++)”. In addition, in the experiment with HLA-A*02:01, the “Peptide exchange” value is given as ““+++” (≥50 = +++)”.

For the substance “61 (SLLNKDLSL; listed as Homo sapiens) [compound 61]”, in the experiment with CD8+ T cells, the “Wells positive [%]” value is ““+” (<20% = +)”. In addition, the “Peptide exchange” value with HLA-A*02:01 was ““++++” (≥75% = ++++)”.

Regarding “62 (ALAPYLDLL; listed as Homo sapiens) [compound 62]”, the “Wells positive [%]” value with CD8+ T cells is reported as ““++” (20% - 49% = ++)”. Moreover, in the experiment with HLA-A*02:01, the “Peptide exchange” value is listed as ““++++” (≥75% = ++++)”.

“66 (KLAPIPVEL; listed as Homo sapiens) [compound 66]”: the “Wells positive [%]” value in the experiment with CD8+ T cells is on record as ““++” (20% - 49% = ++)”. In the experiment with HLA-A*02:01, the “Peptide exchange” value is listed as ““++++” (≥75% = ++++)”.

Consider “67 (LLATVNVAL; listed as Homo sapiens) [compound 67]”, for which, in the experiment on CD8+ T cells, the “Wells positive [%]” value is reported as ““+” (<20% = +)”. Besides, the “Peptide exchange” value with HLA-A*02:01 is reported as ““++++” (≥75% = ++++)”.

With “68 (QIAAFLFTV; listed as Homo sapiens) [compound 68]”, the “Wells positive [%]” value in the experiment with CD8+ T cells was ““+++” (50% - 69% = +++)”. For the same substance, in the experiment with HLA-A*02:01, the “Peptide exchange” value is ““++++” (≥75% = ++++)”.

Turning to “73 (YLGEEYPEV; listed as Homo sapiens) [compound 73]”, the “Wells positive [%]” value in the experiment on CD8+ T cells was ““+” (<20% = +)”. For the same substance, the “Peptide exchange” value with HLA-A*02:01 is ““+++” (≥50 = +++)”.

With “74 (SLDLRPLEV; listed as Homo sapiens) [compound 74]”, the “Wells positive [%]” value in the experiment on CD8+ T cells was ““++” (20% - 49% = ++)”. The “Peptide exchange” value in the experiment with HLA-A*02:01 is ““++++” (≥75% = ++++)”.

In the case of “253 (YSDDDVPSV; listed as Homo sapiens) [compound 253]”, the “Wells positive [%]” value with CD8+ T cells is listed as ““+++” (50% - 69% = +++)”. The “Peptide exchange” value with HLA-A*02:01 is on record as ““++++” (≥75% = ++++)”.

“254 (FLYSETWNI; listed as Homo sapiens) [compound 254]”: the “Wells positive [%]” value in the experiment on CD8+ T cells is ““+” (<20% = +)”. In the experiment with HLA-A*02:01, the “Peptide exchange” value is ““++++” (≥75% = ++++)”.

Consider “256 (ALQETPPQV; listed as Homo sapiens) [compound 256]”, for which, in the experiment with CD8+ T cells, the “Wells positive [%]” value is ““+” (<20% = +)”. Further, in the experiment with HLA-A*02:01, the “Peptide exchange” value was ““+++” (≥50 = +++)”.

Turning to “258 (RIYPFLLMV; listed as Homo sapiens) [compound 258]”, the “Wells positive [%]” value in the experiment on CD8+ T cells is ““++++” (≥70% = ++++)”. In addition, in the experiment with HLA-A*02:01, the “Peptide exchange” value is reported as ““+++” (≥50 = +++)”.

On to “260 (RLDEAFDFV; listed as Homo sapiens) [compound 260]”, for which the “Wells positive [%]” value in the experiment with CD8+ T cells is ““+” (<20% = +)”. The “Peptide exchange” value with HLA-A*02:01 is reported as ““++++” (≥75% = ++++)”.

“261 (FLPETRIMTSV; listed as Homo sapiens) [compound 261]”: the “Wells positive [%]” value with CD8+ T cells is given as ““+” (<20% = +)”. Also, the “Peptide exchange” value with HLA-A*02:01 is recorded as ““++++” (≥75% = ++++)”.

For “262 (LMGPVVHEV; listed as Homo sapiens) [compound 262]”, the “Wells positive [%]” value in the experiment with CD8+ T cells was ““++” (20% - 49% = ++)”. The “Peptide exchange” value in the experiment with HLA-A*02:01 was ““++++” (≥75% = ++++)”.
